Measured values: patent US9714245B2, “Carboline compounds usable in the treatment of neurodegenerative diseases” (ALZPROTECT, priority 2013, dated 2017)
pIC50: −log10 of the molar value.

Assays:
[1] = Cytotoxicity evaluation (MTS assay); assay type: cell-based, Human; conditions: human, SY5Y-APPWT neuroblastoma cells (expressing APP); SY5Y-APPWT cells, 24 h treatment, MTS
Description: Human neuroblastoma cell line SY5Y-APP^WT was used to assess the cytotoxic effects of each compound. SY5Y-APP^WT cells were seeded at 20000 cells/well onto 96-well plates and were cultured in Dulbecco's modified Eagle medium (DMEM, Invitrogen) supplemented with 10% fetal calf serum (PAA), 2 mM L-glutamine (Invitrogen), 1 mM non-essential amino acids (Invitrogen), 50 units/ml penicillin/streptomycin (Invitrogen), and 200 μg G418=geneticin (Invitrogen) (selection for cells expressing APP) in a 5% CO2 humidified incubator at 37° C. After 24 h, the cells were washed and incubated with the compound at 0.1; 0.3; 1; 3; 10; 30 and 100 μM or with DMSO as control diluted in the same culture medium at 37° C. in 5% CO2. After 24 h of treatment, cytotoxicity was determined by using colorimetric MTS assay (CellTiter 96® Aqueous One Solution Cell Proliferation Assay-MTS Promega) according to the protocol of the manufacturer. Absorbance was read at 490 nm and results were expressed as % from control condition considered as 100%.

[2] = system: secreted Aβ1-40; experiment: Aβ1-40 secretion by APP-transfected neuroblastoma cells (ELISA); assay type: cell-based; conditions: Homo sapiens, Neuroblastoma cell; SKNSH-SYSY APPWT cells; concentration decreasing secreted Aβ1-40 to 50% of basal amount
Description: Cell Cultures and Transfections to Test Activity on Aβ1-40 and Aβ1-42 Secretion
Human neuroblastoma cell line SKNSH-SYSY (ATCC® Catalog No. CRL-2266™), HEK (ATCC® CRL-1573™) and COS-1 (ATCC® CRL-1650™) cells were maintained in Dulbecco's modified Eagle medium (DMEM, GIBCO BRL) supplemented with 10% fetal calf serum, 2 mM L-glutamine, 1 mM non-essential amino acids, 50 units/ml penicillin/streptomycin (Invitrogen, France) in a 5% CO2 humidified incubator at 37° C. APP695 cDNA was subcloned into eukaryotic expression vector pcDNA3 (Invitrogen), allowing for a G418 (Invitrogen) selection of clones. This APP cDNA coding for the 695 amino acid long isoform was transfected into SKNSH-SYSY cells using the ethyleneimine polymer ExGen 500 (Euromedex) according to the manufacturer's instructions. The cells expressing APP (SKNSH-SYSY APP^WT) were selected by the addition of 200 μg/ml G418 in the cell medium. To quantify AR which released in the cell culture medium, the collected medium was spun at 200×g to eliminate the cell debris. The concentrations of secreted Aâ1-40 and Aβ1-42 were determined using the Human Aβ (1-40) Assay Kit (IBL) or the INNOTEST™ beta-Amyloid (1-42) ELISA Kit (Innogenetics), according to manufacturer's instructions. The results were expressed as IC50, i.e. the concentration able to decrease to 50% the basal amount of secreted Aβ peptide 1-40 and 1-42.

[3] = system: sAPPα; experiment: Soluble APPα quantification (ELISA); assay type: cell-based, Human; conditions: 24 h, control considered as 100
Description: Soluble APPα Quantification
Human neuroblastoma cell line SKNSH-SYSY APP′ was cultured in Dulbecco's modified Eagle medium (Invitrogen) supplemented with 10% fetal calf serum (PAA), 2 mM L-glutamine (Invitrogen), 1 mM non-essential amino acids (Invitrogen), 50 units/ml penicillin/streptomycin (Invitrogen), and 200 μg G418=geneticin (Invitrogen) (selection for cell expressing APP) in a 5% CO2 humidified incubator at 37° C. Cells were counted and seed at 400000 cells/well into a 12-wells plate for 24 h. The day after, cells were treated with 700 μL/well of drug at 0.3; 1; 3 and 10 μM and incubated for 24 h in a 5% CO2 incubator at 37° C. After treatment, culture medium samples were collected and stored at −80° C. until analysis. Samples corresponding to the 1 and 10 μM treatment were centrifuged 1500 rpm for 5 min at 4° C. sAPPα quantification by ELISA was done with Human sAPPα Assay Kit-IBL (Cat#27734) in accordance with manufacturer's protocol. Samples were diluted at 1:150 in the diluent buffer provided in the kit. Each sample was loaded in duplicate onto the 96 well-plate. Results are expressed in ng/ml and then compared to control conditions (considered as 100 in arbitrary units) and are presented for two concentrations of the drug: 1 and 10 μM.

[4] = molecular target: T1, HIS-tagged valosin-containing protein/p97 (VCP/p97) (Homo sapiens, UniProt P55072); experiment: VCP interaction assay (competition with biotinylated probe 4.7); assay type: binding; conditions: compound 60 μM against biotinylated probe 4.7 20 μM
T1 construct: purchased TebuBio
T1 sequence (P55072 whole entry): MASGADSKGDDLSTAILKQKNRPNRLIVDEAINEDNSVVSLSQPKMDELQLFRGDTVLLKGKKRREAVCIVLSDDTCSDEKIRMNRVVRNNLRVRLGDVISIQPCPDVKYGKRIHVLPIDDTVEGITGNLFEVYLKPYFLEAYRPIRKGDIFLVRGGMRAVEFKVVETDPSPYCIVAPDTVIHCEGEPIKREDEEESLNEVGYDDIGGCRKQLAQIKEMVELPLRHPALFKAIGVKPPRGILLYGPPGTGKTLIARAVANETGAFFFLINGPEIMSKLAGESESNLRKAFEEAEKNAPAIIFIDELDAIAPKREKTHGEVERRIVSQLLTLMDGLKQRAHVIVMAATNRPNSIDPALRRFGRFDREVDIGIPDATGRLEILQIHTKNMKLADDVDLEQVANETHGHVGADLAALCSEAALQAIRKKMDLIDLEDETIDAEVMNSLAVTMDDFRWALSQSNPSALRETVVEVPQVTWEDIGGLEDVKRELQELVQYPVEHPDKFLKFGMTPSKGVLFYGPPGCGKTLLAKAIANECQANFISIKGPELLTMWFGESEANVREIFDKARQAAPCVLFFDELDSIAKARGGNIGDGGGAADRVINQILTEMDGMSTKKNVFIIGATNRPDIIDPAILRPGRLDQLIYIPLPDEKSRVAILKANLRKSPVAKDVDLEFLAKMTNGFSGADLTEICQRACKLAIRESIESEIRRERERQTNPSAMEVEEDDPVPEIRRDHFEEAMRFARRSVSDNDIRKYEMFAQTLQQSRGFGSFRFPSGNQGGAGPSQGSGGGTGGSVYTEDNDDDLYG
Description: Physical interaction between HIS-tagged valosin-containing protein/p97 (VCP/p97) (TebuBio) and biotinylated probe 4.7 was investigated by Enzyme-Linked Assay (ELA) based on HIS-Select® High Sensitivity Nickel coated plates, used following manufacturer's recommendations (Sigma Aldrich). Other chemical compounds were tested in competition with the biotinylated probe 4.7 in this system. Briefly, nickel beads were incubated overnight at 4° C. with 2% casein blocking solution. After a three-time rinse with wash buffer (0.05% Tween20 in phosphate buffer saline), HIS-tagged VCP/p97 protein (5 μg/ml in PBS) was incubated with nickel beads for 90 min at 25° C. Then, the plate was washed three times. Chemical compounds (60 μM) were incubated 10 min at 25° C. before addition of biotinylated probe 4.7 (20 μM) 30 min at 25° C. After five washes, streptavidin-peroxidase (2 μg/ml) was added during 1 h at 25° C., followed by the peroxidase substrate addition 30 min at RT. Reaction was stopped with 0.5M H2SO4 solution and the optical density was read at 450 nm using a microplate reader (VICTOR X4 Wallac, 2030-0040, PerkinElmer). Competition efficiency was quantified by the loss of signal compared to the control condition.

- pIC50 [2]: 5.92
- VCP (competition efficiency, loss of signal compared to the control) [4]: 96%
Structure (SMILES): CC(C)CN(CCCN1CCN(CCCN2CCc3[nH]c4ccc(F)cc4c3C2)CC1)CC(C)C [Compound 3.1d, N,N-diisobutyl-3-(4-(3-(8-fluoro-1,3,4,5-tetrahydro-1H-pyrido[4,3-b]indol-2-yl)propyl)piperazin-1-yl)propylamine]
- CC50 at 24 h [1]: 15 µM
- sAPPα (10 μM) [3]: 166 arbitrary units
